The source of these data is patent US20190031773A1, “INHIBITORS AND ANTAGONISTS OF HUMAN PYCR1” (AGENCY FOR SCIENCE, TECHNOLOGY AND RESEARCH, priority 2017, published 2019).

pIC50: −log10 of the molar value.

The test system of data set [1] is rat MH3924A cells. The data set is described as follows: Subcutaneous MH3924A xenograft model. In kind it is in vivo. The settings on record: scid mice. From the text:
Female scid mice (InVivos, Singapore) were subcutaneously inoculated with 1×10^6rat MH3924A cells that were stably transfected with either shRNA Pycr1.2 or scrambled control shRNA. Mice were sacrificed and tumors excised 3 weeks later.

The subject of data set [2] is rat MH3924A cells. Nature of the data set: Orthotopic MH3924A xenograft models, doxycycline-inducible shRNA. The format is in vivo, scid mice. As to conditions: preventive setting, knockdown induced by doxycycline one day after orthotopic implantation. From the text:
The HCC model was created by the direct intrahepatic injection of rat MH3924A cells harboring inducible shRNA Pycr1.2 or scrambled shRNA constructs into scid mice (InVivos, Singapore). The mice were anesthetized and a midline incision was made to expose the liver. The cells were then slowly injected under the hepatic capsule into the upper left lobe of the liver using a 27-G needle. A pale, whitish color could be observed at the point of injection under the hepatic capsule. Gentle compression was applied with a cotton applicator to stop bleeding and reflux of the cells. The abdomen was closed with a 4-0 silk suture.
In the preventive setting (FIG. 7), shRNA expression was induced the day after cell injection by adding 1 μg/ml doxycycline to the drinking water. Two weeks later, animals were sacrificed and tumors excised for analysis (n=5).
In the therapeutic setting, mice were subjected to liver MRI (magnetic resonance imaging) 7 days (1st experiment, FIG. 8) or 10 days (2nd experiment, FIG. 9) after cell injection and shRNA expression was induced one or four days later by adding 1 μg/ml doxycycline to the drinking water. On day 19 (1st experiment) or 21 (2nd experiment), animals were subjected to liver MRI and sacrificed. Tumors were lysed and analyzed for PYCR1 by Western blot.

For data set [3], the system named is rat MH3924A cells.
Protocol: Morris hepatoma cells (MH3924A) were cultured in Dulbecco's modified eagle medium (DMEM) media supplemented with 10% fetal bovine serum (FBS), 100 IU/ml penicillin, 100 μg/ml streptomycin. To assess cell proliferation, cells were seeded in T25 flasks and incubated in DMEM complete medium for 24 hours to allow attachment. Subsequently, seeding cells were infected with shRNA lentivirus in the presence of 8μg/ ml of polybrene for about 7 hours, cells were grown for varying lengths of time, at the end of which they were detached by trypsinization and counted with Countess (Life Technologies, Carlsbad, USA).
Data set [4] addresses T1, PYCR1 full length recombinant enzyme (aa 1-319) (Homo sapiens, UniProt P32322).
T1 construct: PYCR1 full length recombinant enzyme (aa 1-319) with a 6His-tag at the N-terminus; 6His (N); made in house; host or cells: E. coli
T1 sequence (P32322 1-319): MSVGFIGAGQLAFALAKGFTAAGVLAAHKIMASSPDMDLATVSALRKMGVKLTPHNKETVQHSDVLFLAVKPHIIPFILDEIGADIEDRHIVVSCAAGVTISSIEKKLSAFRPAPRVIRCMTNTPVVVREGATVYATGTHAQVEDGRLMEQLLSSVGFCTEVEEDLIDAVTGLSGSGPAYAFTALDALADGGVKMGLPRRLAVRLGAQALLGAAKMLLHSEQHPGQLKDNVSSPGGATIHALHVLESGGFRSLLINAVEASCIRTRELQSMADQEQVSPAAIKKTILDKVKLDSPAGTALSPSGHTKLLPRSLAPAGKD
The data set is described as follows: PYCR1 Inhibition Assay (NAD(P)H-Glo luminescence). In kind it is biochemical. As to conditions: 5 mM L-proline + 0.5 mM NAD+, 4.2 nM enzyme, 45 min at room temperature. From the text:
An example for such assay may look as follows:
The assay is based on the ability of PYCR1 to catalyze the oxidation of L-proline to L-1 pyrroline-5-carboxylate which occurs concomitant with the reduction of the cosubstrate NAD^+ to its reduced form NADH+H^+. The amount of NADH+H^+ was quantified using the NAD(P)H-Glo™ kit from Promega (catalogue number G9062). Components of the kit generate a luciferase-based luminescence signal the intensity of which is linearly proportional to the amount of NADH+H^+ generated by the PYCR1 reaction and consequently the PYCR1 activity. The luminescence intensity was taken as the measure for the amount of NADH+H^+ generated by PYCR1. […] 40 nl Test compound (dissolved and serially diluted in DMSO at final concentrations during the enzymatic reaction ranging from 6.9E-09 M to 4.5E-05 M) is added to the well of a white 1536-well microtiter plate using an acoustic dispenser (Echo Liquid Handler from Labcyte Inc.) • 2. […] Preincubation of enzyme and test compound for approximately 15 min at room temperature • 4. Add 2.0 μl Substrate mix in assay buffer (5 mM L-proline+0.5 mM NAD^+ final concentration during the enzymatic reaction) • 5. 45 min PYCR1 reaction at room temperature (linear range of the enzymatic reaction) • 6. Add 1.0 μl Stopping agent in assay buffer (2 mM ZnCl2 final concentration) • 7. Incubate for 15 min at room temperature • 8. Add 2.0 μl NAD(P)H-Glo™ reagent (Promega) • 9. Incubate for 30-150 min at room temperature for generation of the persistent luminescence signal • 10. Measure luminescence intensity in a ViewLux Imager (PerkinElmer)

With “shRNA Pycr1.2: Rat PYCR1.2 shRNA: GAACCTGACACCCCACAACAA, short hairpin oligonucleotide targeting rat Pycr1 in lentiviral vector pLKO or pLKO-Tet”, the tumor weight entry with rat MH3924A cells [1] (MH3924A cells stably expressing shRNA, 3 weeks, n=5) was “significantly reduced”. The “tumor growth in vivo” value in the data set with rat MH3924A cells [1] (tumors excised 3 weeks later) is listed as “significantly inhibited tumor growth”. Further, in the data set on rat MH3924A cells [2], the tumor growth entry was “significantly reduced tumor growth”. Further, the cell growth result in the data set with rat MH3924A cells [3] (doxycycline-inducible PYCR1 knockdown MH3924A cell line, with vs without doxycycline) is on record as “reduced cell growth”. The cell proliferation result in the data set on rat MH3924A cells [3] (rat MH3924A cells, shRNA knockdown vs scrambled shRNA) was “reduced proliferation”.

For the compound `COc1ccc(C(=O)c2oc3ccccc3c2CSCCC(=O)OC(C)(C)C)cc1C(=O)O` [5-[(3-{[(3-tert-butoxy-3-oxopropyl)thio]methyl}-1-benzofuran-2-yl)carbonyl]-2-methoxybenzoic acid], the pIC50 in data set [4] is 5.07.

Turning to `O=C(CCCc1nc(-c2ccc(Cl)cc2)no1)Nc1ccccc1C(=O)O` [2-({4-[3-(4-chlorophenyl)-1,2,4-oxadiazol-5-yl]butanoyl}amino)benzoic acid], the pIC50 in data set [4] is 5.10.

`O=C(Cc1ccc(C(=O)O)cc1)NC(c1ccccc1)c1ccccc1N1CCCCC1` (centres unmarked) [4-(2-oxo-2-{[phenyl(2-piperidin-1-ylphenyl)methyl]amino}ethyl)benzoic acid]: in data set [4], the pIC50 was 5.14.
